For nine compounds, MIC results are on record in ChEMBL document CHEMBL1154454, “Tetrahydronaphthyl azole oxime ethers: the conformationally rigid analogues of oxiconazole as antibacterials” (2009).

Values after ≈ are worked out from the molar mass of the structure shown.

Format in all cases: functional
Assay [1] concerns Candida albicans. Description: Antimicrobial activity against Candida albicans after 48 hrs by standard microbroth dilution assay.
Assay [2] concerns Cryptococcus neoformans. Description: Antimicrobial activity against Cryptococcus neoformans after 72 hrs by standard microbroth dilution assay. A general note: Broth dilution looks for growth in wells or tubes with falling amounts of substance.
For assay [3], the system named is Sporothrix schenckii. The assay can be described thus: Antimicrobial activity against Sporothrix schenckii after 72 hrs by standard microbroth dilution assay.
Assay [4] concerns Trichophyton mentagrophytes. The assay can be described thus: Antimicrobial activity against Trichophyton mentagrophytes after 96 hrs by standard microbroth dilution assay.
The subject of assay [5] is Aspergillus fumigatus. The assay can be described thus: Antimicrobial activity against Aspergillus fumigatus after 72 hrs by standard microbroth dilution assay.
The test system of assay [6] is Candida parapsilosis. The assay can be described thus: Antimicrobial activity against Candida parapsilosis after 48 hrs by standard microbroth dilution assay. The following applies: Lodderomyces parapsilosis.
Assay [7] concerns Klebsiella pneumoniae. Description: microbe, parasite or virus in culture. Particulars: ATCC 27736, 24 h.
Description: Antimicrobial activity against Klebsiella pneumoniae ATCC 27736 after 24 hrs by standard microbroth dilution assay
In assay [8] the test system is Escherichia coli. Description: microbe, parasite or virus in culture. The following applies: ATCC 9637, 24 h.
Description: Antimicrobial activity against Escherichia coli ATCC 9637 after 24 hrs by standard microbroth dilution assay
Assay [9] relates to Pseudomonas aeruginosa. The assay can be described thus: Antimicrobial activity against Pseudomonas aeruginosa ATCC BAA427 after 24 hrs by standard microbroth dilution assay.
Assay [10] relates to Staphylococcus aureus. Description: microbe, parasite or virus in culture. The following applies: ATCC 25923, 24 h.
Description: Antimicrobial activity against Staphylococcus aureus ATCC 25923 after 24 hrs by standard microbroth dilution assay

Regarding `OC(Cn1cncn1)(Cn1cncn1)c1ccc(F)cc1F` [FLUCONAZOLE], the MIC worked out at 0.5 µg/mL (≈ 1.63 µM) in assay [1]; 1 µg/mL (≈ 3.27 µM) in [2]; 2 µg/mL (≈ 6.53 µM) in assay [3]; 1 µg/mL (≈ 3.27 µM) in assay [4]; 2 µg/mL (≈ 6.53 µM) in assay [5]; 1 µg/mL (≈ 3.27 µM) in assay [6].

With `Clc1ccc(CO/N=C(\Cn2ccnc2)c2ccc(Cl)cc2Cl)c(Cl)c1` [OXICONAZOLE], the MIC is > 50 µg/mL in assay [7]; > 50 µg/mL in [8]; > 50 µg/mL in [9]; 6.25 µg/mL (≈ 14.6 µM) in assay [10]; 12.5 µg/mL (≈ 29.1 µM) in [1]; 0.01 µg/mL (≈ 0.0233 µM) in [2]. Moreover, the MIC stood at 3.12 µg/mL (≈ 7.27 µM) in [3], 6.25 µg/mL (≈ 14.6 µM) in assay [4], 6.25 µg/mL (≈ 14.6 µM) in [5] and 3.12 µg/mL (≈ 7.27 µM) in assay [6].

As for `Clc1cccc(CO/N=C2\c3cccc(Br)c3CCC2Cn2ccnc2)c1` (stereo unspecified), the MIC in assay [7] is 1.56 µg/mL (≈ 3.51 µM); in assay [8] it was 0.391 µg/mL (≈ 0.879 µM); in assay [9], > 50 µg/mL; in assay [10], 0.781 µg/mL (≈ 1.76 µM); in assay [1] it was > 50 µg/mL; in [2], > 50 µg/mL. Further, the MIC is > 50 µg/mL in [3], > 50 µg/mL in [4], > 50 µg/mL in assay [5] and 50 µg/mL (≈ 112 µM) in assay [6].

For `Clc1cccc(CO/N=C2\c3ccccc3CCC2Cn2cncn2)c1` (stereo unspecified), the MIC in [7] was > 50 µg/mL; in [8], 12.2 µg/mL (≈ 33.4 µM); in assay [9] it was > 50 µg/mL; in assay [10] it was 12.2 µg/mL (≈ 33.4 µM); in assay [1], > 50 µg/mL; in [2], > 50 µg/mL. In addition, the MIC in assay [3], in [4], in assay [5] and in assay [6] was > 50 µg/mL each time.

Regarding `Cc1cccc2c1CCC(Cn1cncn1)/C2=N/OCc1cccc(Cl)c1` (stereo unspecified), the MIC was > 50 µg/mL in assay [7]; 6.25 µg/mL (≈ 16.4 µM) in assay [8]; > 50 µg/mL in assay [9]; 6.25 µg/mL (≈ 16.4 µM) in assay [10]; > 50 µg/mL in assay [1]; > 50 µg/mL in assay [2]. For the same compound, the MIC in assay [3], in assay [4], in [5] and in [6] was > 50 µg/mL in each case.

On to `c1ccc(CO/N=C2\c3ccccc3CCC2Cn2cncn2)cc1` (stereo unspecified), for which the MIC in [7] was > 50 µg/mL; in assay [8], 25 µg/mL (≈ 75.2 µM); in assay [9] it was > 50 µg/mL; in [10], > 50 µg/mL; in assay [1], > 50 µg/mL; in assay [2], > 50 µg/mL. Moreover, the MIC in assay [3], in assay [4], in assay [5] and in assay [6] was > 50 µg/mL throughout.

Regarding `Brc1cccc2c1CCC(Cn1cncn1)/C2=N/OCc1ccccc1` (stereo unspecified), the MIC in [7] is > 50 µg/mL; in [8], 6.25 µg/mL (≈ 15.2 µM); in assay [9] it was > 50 µg/mL; in assay [10], 12.5 µg/mL (≈ 30.4 µM); in [1], > 50 µg/mL; in [2], > 50 µg/mL. Besides, the MIC in assay [3], in assay [4], in assay [5] and in assay [6] was > 50 µg/mL throughout.

For `Cc1cccc2c1CCC(Cn1ccnc1)/C2=N/OCc1cccc(Cl)c1` (stereo unspecified), the MIC is 1.56 µg/mL (≈ 4.11 µM) in assay [7]; 0.391 µg/mL (≈ 1.03 µM) in [8]; > 50 µg/mL in [9]; 0.781 µg/mL (≈ 2.06 µM) in [10]; > 50 µg/mL in [1]; > 50 µg/mL in assay [2]. Besides, the MIC in [3] was > 50 µg/mL; in assay [4], > 50 µg/mL; in assay [5], 50 µg/mL (≈ 132 µM); in assay [6], > 50 µg/mL.

For `c1ccc(CO/N=C2\c3ccccc3CCC2Cn2ccnc2)cc1` (stereo unspecified), the MIC is 6.25 µg/mL (≈ 18.9 µM) in assay [7]; 0.781 µg/mL (≈ 2.36 µM) in assay [8]; > 50 µg/mL in assay [9]; 6.25 µg/mL (≈ 18.9 µM) in assay [10]; > 50 µg/mL in assay [1]; > 50 µg/mL in [2]. The MIC was > 50 µg/mL in assay [3], > 50 µg/mL in assay [4], 50 µg/mL (≈ 151 µM) in assay [5] and > 50 µg/mL in assay [6].
